Oligonucleotides are written 5' to 3', each unit as a sugar letter and its base; * is a phosphorothioate linkage, no mark a phosphodiester; rarer units and linkages stand in square brackets, end groups in braces. Plain capitals give the bases only. e = 2'-O-(2-methoxyethyl) (MOE); [5mC] = 5-methylcytosine; d = 2'-deoxy (DNA)
How the values were obtained:
[1] = test system: IgM secretion by BCL1 cells; test: BCL1 IgM secretion, ELISA; type: cell-based, mouse
Protocol: The effect of ISIS 17152 (SEQ ID. NO. 99) on IgM secretion levels was determined. STAT3 has been implicated in regulation of IgM expression (Faris, M., et al., Immunology, 1997, 90, 350-357). BCL1 cells were grown, treated and processed as described in Example 2.
1×10^6 BCL1 cells were incubated in 12-well plates in 2 mL complete RPMI following electroporation. Supernatant was replaced at 24 hour post electroporation with fresh medium. 48 hours later, supernatants were harvested, centrifuged to remove cells, and assayed for IgM content using the OPT-EIA™ ELISA kit (Pharmingen, San Diego, Calif.) and capture and detecting antibodies for mouse IgM (Southern Biotechnology, Birmingham, Ala.).

MIP1a mRNA = test: Induction of chemokines in BCL1 cells, RNase protection assay: MIP1a; type: cell-based, mouse; conditions: CpG oligonucleotide induced
Protocol: (§1) The effect of ISIS 17152 (SEQ ID. NO. 99) on chemokine levels was determined. BCL1 cells were grown, treated and processed as described in Example 2. Chemokine gene expression was induced in BCL1 cells by addition of […] of a CpG-containing oligonucleotide to the media 16 hours following antisense oligonucleotide electroporation. CpG-containing oligonucleotides are immune-stimulatory (Krieg, A. M., et al., Nature, 1995, 374, 546-549). The levels of chemokines were measured eight hours later using RNase protection assay as described in Example 2 with a mouse chemokine template set, Mck-5 (Pharmingen, San Diego, Calif.).

MIP1b mRNA = test: Induction of chemokines in BCL1 cells, RNase protection assay: MIP1b; type: cell-based, mouse; conditions: CpG oligonucleotide induced
Protocol: as §1

Mouse STAT3 mRNA = test: Inhibition of mouse STAT3 mRNA expression in BCL1 cells (electroporation; RNase protection/Northern blot); type: cell-based; design: % mRNA INHIBITION: dose or concentration left out as unconfirmed; conditions: BCL1 cells electroporated with oligonucleotide, RNA collected 24 hours later
Protocol: The B lymphoma cell line, BCL1 was obtained from ATCC (Rockville, Md.). BCL1 cells were cultured in RPMI 1640 medium.
BCL1 cells (5×10^6 cells in PBS) were transfected with oligonucleotides by electroporation, at 200V, […]. using a BTX Electro Cell Manipulator 600 (Genetronics, San Diego, Calif.). For an initial screen, BCL1 were electroporated with […] oligonucleotide and RNA collected 24 hours later. Controls without oligonucleotide were subjected to the same electroporation conditions.
Total cellular RNA was isolated using the RNEASY7 kit (Qiagen, Santa Clarita, Calif.). RNAse protection experiments were conducted using RIBOQUANT™ kits and template sets according to the manufacturer's instructions (Pharmingen, San Diego, Calif.). Northern blotting was performed as described in Chiang, M-Y. et al. (J. Biol. Chem., 1991, 266, 18162-18171), using a rat cDNA probe prepared by Xho I/Sal I restriction digest of psvsport-1 plasmid (ATCC, Rockville, Md.). mRNA levels were quantitated using a PhosphorImager (Molecular Dynamics, Sunnyvale, Calif.).

BCL1 cells = test: BCL1 cell proliferation, [3H]-thymidine incorporation; type: cell-based, mouse; conditions: BCL1 cells; for % Cell Proliferation: 48 hours after electroporation
Protocol: The effect of ISIS 17152 (SEQ ID NO. 99) on BCL1 proliferation was determined. BCL1 cells contain constitutively active STAT3 which is thought to be responsible for their proliferation. BCL1 cells were grown, treated and processed as described in Example 2.
1×10^5 BCL1 cells were incubated in 96-well plates in […] complete RPMI following electroporation. Cultures were pulsed with […] of [^3H]-thymidine for the last 8 hours of culture and cells were harvested and analyzed for thymidine incorporation as described in Francis, D. A. et al. (Int. Immunol., 1995, 7, 151-161) 48 hours after electroporation.

Human STAT3 mRNA = test: Inhibition of human STAT3 mRNA expression in U266 cells, Northern blot; type: cell-based; conditions: U266 cells, 2.5 μM oligonucleotide, electroporation, 24 hours
Protocol: U266 human myeloma cell lines (originally obtained from American Type Culture Collection) were maintained in RPMI 1640 medium supplemented with 10% fetal calf serum. Cells (15×10^6 cells in PBS) were transfected with oligonucleotides at 200V with a single 6-millisecond pulse using a BTX Electro Square Porator T820 (Genetronics, San Diego Calif.). The cells were incubated for 24 hours before RNA extraction.
Total cellular RNA was isolated using the Rneasy kit (Qiagen, Santa Clarita, Calif.). Northern blotting was perfomed on 15 μg of RNA using a cDNA probe prepared from MB-MDA 468 RNA by standard RT-PCR followed by a nested primer reaction. Signals were quantitated using a Molecular Dynamics Phosphorimager.
In order to examine the importance of STAT3 expression in multiple myeloma cells, a series of 20mer STAT3 antisense oligonucleotides were designed and synthesized, using phosphorothioate chemistry and incorporating 2′-O-methoxyethyl modifications to improve hybridization affinity and nuclease resistance.

Mouse STAT3 protein = test: STAT3 protein levels in BCL1 cells by Western blot, dose response; type: cell-based
Protocol: ISIS 17152 (SEQ ID. NO. 99) was chosen for further study. The effect of this oligonucleotide on protein levels was determined by Western blot. ISIS 23177 (SEQ ID NO. 106), a 3 base mismatch, was used as a control. BCL1 cells were grown, treated and processed as described in Example 2.
Nuclear extracts from primary B cells and B lymphoma cell lines were prepared as described in Karras, J. G., et al. (J. Exp. Med., 1997, 185, 1035-1042).
Western blotting was performed as described in Karras, J. G. et al. (J. Immunol., 1996, 157, 2299). STAT1 and STAT3 antibodies were obtained from UBI (Lake Placid, N.Y.).

RANTES mRNA = test: Induction of chemokines in BCL1 cells, RNase protection assay: RANTES; type: cell-based, mouse; conditions: CpG oligonucleotide induced
Protocol: as §1

| Substance | % IgM Expression ([1]; dose 5 nM) [%] | % IgM Expression ([1]; dose 15 nM) [%] | % IgM Inhibition ([1]; dose 15 nM) [%] | % MIP1a mRNA (MIP1a mRNA; dose 5 nM) [%] | % MIP1a mRNA (MIP1a mRNA; dose 10 nM) [%] | % MIP1a mRNA (MIP1a mRNA; dose 20 nM) [%] | % MIP1b mRNA (MIP1b mRNA; dose 5 nM) [%] | % MIP1b mRNA (MIP1b mRNA; dose 10 nM) [%] | % MIP1b mRNA (MIP1b mRNA; dose 20 nM) [%] | % Cell Proliferation (BCL1 cells; dose 10 nM) [%] | % Cell Inhibition (BCL1 cells; dose 15 nM) [%] | % Cell Proliferation (BCL1 cells; dose 15 nM) [%] | % Cell Proliferation (BCL1 cells; dose 20 nM) [%] | % protein Expression (Mouse STAT3 protein; dose 10 nM) [%] | % protein Inhibition (Mouse STAT3 protein; dose 10 nM) [%] | % protein Expression (Mouse STAT3 protein; dose 15 nM) [%] | % protein Inhibition (Mouse STAT3 protein; dose 15 nM) [%] | % protein Expression (Mouse STAT3 protein; dose 20 nM) [%] | % protein Inhibition (Mouse STAT3 protein; dose 20 nM) [%] | % RANTES mRNA (RANTES mRNA; dose 5 nM, control 100%) [%] | further results |
| --- | --- | --- | --- | --- | --- | --- | --- | --- | --- | --- | --- | --- | --- | --- | --- | --- | --- | --- | --- | --- | --- |
| 17152 (antisense eA*eA*eA*eA*eA*dG*dT*dG*dC*dC*dC*dA*dG*dA*dT*eT*eG*e[5mC]*e[5mC]*e[5mC]) [compound 17152] | 34.2 | 23.1 | 76.9 | 201 | 258 | 254 | 133 | 150 | 159 | 78.5 | 45.6 | 54.4 | 50.2 | 41.7 | 58.3 | 42.5 | 57.5 | 26.5 | 73.5 | 236 | % IgM Inhibition ([1]; dose 5 nM): 65.8%; % mRNA INHIBITION (Mouse STAT3 mRNA): 75%; % mRNA EXPRESSION (Mouse STAT3 mRNA; control 100%): 25%; % Cell Inhibition (BCL1 cells; dose 10 nM): 21.5%; % Cell Inhibition (BCL1 cells; dose 20 nM): 49.8%; % mRNA INHIBITION (Human STAT3 mRNA): 17.5%; % mRNA EXPRESSION (Human STAT3 mRNA; percent of control): 82.5%; % RANTES mRNA (RANTES mRNA; dose 10 nM): 266%; % RANTES mRNA (RANTES mRNA; dose 20 nM): 257% |
| 23177 (antisense eA*eA*eA*eA*eA*dG*dT*dC*dC*dG*dC*dT*dG*dA*dT*eT*eG*e[5mC]*e[5mC]*e[5mC]) [compound 23177] | 110.0 | 80.8 | 19.2 |  |  |  |  |  |  | 117.0 | 0.3 | 99.7 | 107.0 | 75.1 | 24.9 | 67.6 | 32.4 | 62.6 | 37.4 |  |  |
| 23178 (antisense eA*eA*eA*eA*eA*dC*dT*dC*dC*dG*dC*dT*dG*dA*dA*eT*eG*e[5mC]*e[5mC]*e[5mC]) [compound 23178] |  |  |  | 123 | 116 | 106 | 96.5 | 87.1 | 73.3 |  |  |  |  |  |  |  |  |  |  | 96 | % RANTES mRNA (RANTES mRNA; dose 10 nM): 70.2%; % RANTES mRNA (RANTES mRNA; dose 20 nM): 56% |

Source: patent US20050074879A1, “Antisense oligonucleotide modulation of STAT3 expression” (priority 2000, published 2005)
